US5958923A, “Use of thiazole and thiadiazole compounds” (BASF Aktiengesellschaft, priority 1994, dated 1999)

What was measured:
human D3 receptor = molecular target: T1, human D3 receptor (Homo sapiens, UniProt P35462); test: D3 binding assay (125I-iodosulpiride, cloned human D3 receptor-expressing CCL 1.3 mouse fibroblasts); conditions: for Ki: 0.1 nM 125 iodosulpiride, 60 min, 30° C., read-out: Receptor binding D3 125I-sulpiride Ki; for Selectivity Ki D2 /Ki D3: ratio D2 (3H-spiperone) to D3 (125I-sulpiride)
T1 construct: (Natick, Mass., USA); host or cells: CCL 1.3 mouse fibroblasts
T1 sequence (P35462 whole entry): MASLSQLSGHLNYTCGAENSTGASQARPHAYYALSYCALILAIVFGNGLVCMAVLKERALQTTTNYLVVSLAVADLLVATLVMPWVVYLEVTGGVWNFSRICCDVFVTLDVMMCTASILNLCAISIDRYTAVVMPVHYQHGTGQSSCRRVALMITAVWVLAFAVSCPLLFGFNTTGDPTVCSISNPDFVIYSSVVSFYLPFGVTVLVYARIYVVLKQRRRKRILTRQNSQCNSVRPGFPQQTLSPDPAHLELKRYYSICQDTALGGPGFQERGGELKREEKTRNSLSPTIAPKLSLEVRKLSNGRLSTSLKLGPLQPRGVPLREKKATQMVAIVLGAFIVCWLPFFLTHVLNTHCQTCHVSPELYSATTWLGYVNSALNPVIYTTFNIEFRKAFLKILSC
Experimental: Cloned human D3 receptor-expressing CCL 1.3 mouse fibroblasts obtained from Res. Biochemicals Internat. One Strathmore Rd., Natick, Mass. 01760-2418 USA, were used for the binding studies.
The D3 -expressing cells were grown in RPMI-1640 containing 10% fetal calf serum (GIBCO No. 041-32400 N); 100 U/ml penicillin and 0.2% streptomycin (GIBCO BRL, Gaithersburg, Md., USA). After 48 h, the cells were washed with PBS and incubated with 0.05% trypsin-containing PBS for 5 min. Neutralization with medium was then carried out, and the cells were collected by centrifugation at 300×g. To lyze the cells, the pellet was briefly washed with lysis buffer (5 mM tris-HCl, pH 7.4, with 10% glycerol) and then incubated in a concentration of 10^7 cells/ml of lysis buffer at 4° C. for 30 min. The cells were centrifuged at 200×g for 10 min and the pellet was stored in liquid nitrogen.
For the D3 receptor-binding assay, the membranes were suspended in incubation buffer (50 mM tris-HCl, pH 7.4, with 120 mM NaCl, 5 mM KCl, 2 mM CaCl2, 2mM MgCl2, 10 μM quinolinol, 0.1% ascorbic acid and 0.1% BSA) in a concentration of about 10^6 cells/250 μl of assay mixture and incubated at 30° C. with 0.1 nM ^125 iodosulpiride in the presence and absence of test substance. The non-specific binding was determined using 10^-6 M spiperone.
After 60 min, the free and the bound radioligand was separated by filtration through GF/B glass fiber filters (Whatman, England) on a Skatron cell collector (Skatron, Lier, Norway), and the filters were washed with ice-cold tris-HCl buffer, pH 7.4. The radioactivity collected on the filters was quantified using a Packard 2200 CA liquid scintillation counter.
The Ki values were determined by non-linear regression analysis using the LIGAND program.

D2 receptor = molecular target: T2, D2 receptor (Bos taurus, UniProt P20288); test: D2 binding assay (3H-spiperone, D2low, bovine nucleus caudatus membranes); conditions: 0.2 nmol/l 3H-spiperone (D2low), 25° C., 60 min
T2 construct: Nucleus caudatus was removed from bovine brain; from tissue; host or cells: bovine nucleus caudatus membranes
T2 sequence (P20288 whole entry): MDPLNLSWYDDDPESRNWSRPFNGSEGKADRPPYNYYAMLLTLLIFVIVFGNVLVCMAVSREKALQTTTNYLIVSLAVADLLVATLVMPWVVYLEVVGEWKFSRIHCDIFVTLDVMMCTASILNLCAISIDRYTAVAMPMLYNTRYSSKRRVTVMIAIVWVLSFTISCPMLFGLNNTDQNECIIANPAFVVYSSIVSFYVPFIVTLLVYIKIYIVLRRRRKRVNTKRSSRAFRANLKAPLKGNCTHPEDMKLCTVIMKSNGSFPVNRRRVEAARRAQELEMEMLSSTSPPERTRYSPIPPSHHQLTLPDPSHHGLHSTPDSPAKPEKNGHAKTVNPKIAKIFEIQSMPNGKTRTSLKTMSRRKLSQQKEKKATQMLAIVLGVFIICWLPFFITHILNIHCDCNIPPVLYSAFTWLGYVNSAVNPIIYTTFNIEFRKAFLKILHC
Experimental: a) Nucleus caudatus (bovine)
Nucleus caudatus was removed from bovine brain and washed with ice-cold 0.32 M sucrose solution. After determination of the weight, the material was comminuted and homogenized in 5-10 volumes of sucrose solution using a Potter-Evehjem [sic] homogenizer (500 rpm). The homogenate was centrifuged at 3,000×g for 15 minutes (4° C.), and the resulting supernatant was subjected to another 15-minute centrifugation at 40,000×g. The residue was then washed twice, by resuspension and centrifugation, with 50 mM tris-HCl, pH 7.4. The membranes were stored in liquid nitrogen until used.
a) ^3 H-Spiperone (D2low)
Nucleus caudatus membranes were taken up in incubation buffer (mM: tris-HCl 50, NaCl 120, KCl 5, MgCl2 1, CaCl2 2, pH 7.4). Various mixtures, each of 1 ml, were prepared:
Total binding: 400 μg of membranes+0.2 nmol/l ^3 H-spiperone (Du Pont de Nemours, NET-565).
Non-specific binding: as mixtures for total binding+10 μM (+)-butaclamol.
Test substance: as mixtures for total binding+increasing concentrations of test substance.
After incubation at 25° C. for 60 minutes, the mixtures were filtered through GF/B glass fibre filters (Whatman, England) on a Skatron cell collector (from Zinsser, Frankfurt), and the filters were washed with ice-cold 50 mM tris-HCl buffer, pH 7.4. The radioactivity collected on the filters was quantified using a Packard 2200 CA liquid scintillation counter.
The Ki values were determined by non-linear regression analysis using the LIGAND program or by conversion of the IC50 values using the formula of Cheng and Prusoff.

Row | Ki (human D3 receptor) [µM] | Selectivity Ki D2 /Ki D3 (human D3 receptor) | Ki (D2 receptor) [µM] | Compound
1 | 0.0014 | 46 | 0.065 | Nc1nnc(CCCCCCN2CCN(c3cccc(C(F)(F)F)c3)CC2)s1 [Example 2]
2 | 0.0006 | 41 | 0.025 | Nc1nnc(SCCCN2CCN(c3cc(Cl)cc(Cl)c3)CC2)s1 [Example 13]
3 | 0.0109 | 36 | 0.402 | CC(CSc1nnc(N)s1)CN1CCN(c2cccc(C(F)(F)F)c2)CC1 (stereo not drawn) [Example 16]
4 | 0.0063 | 31 | 0.2 | Nc1nnc(SCCCN2CCN(c3cccc(C(F)(F)F)n3)CC2)s1 [Example 23]
5 | 0.0065 | 86 | 0.56 | CC(C)c1cccc(N2CCN(CCCCCCCSc3nnc(N)s3)CC2)c1 [Example 49]
6 | 0.0083 | 62 | 0.5 | N#Cc1cccc(N2CCN(CCCCCCCCSc3nnc(N)s3)CC2)c1 [Example 51]
7 | 0.00295 | 50 | 0.145 | Nc1nnc(SCC=CCN2CCN(c3cccc(C(F)(F)F)n3)CC2)s1 [Example 53]
8 | 0.027 | 70 | 3.5 | Cc1cc(N2CCN(CCCSc3nnc(N)s3)CC2)nc(-n2cccc2)n1 [Example 56]
9 | 0.0017 | 132 | 0.225 | CC(C)(C)c1cc(N2CCN(CCCSc3nnc(N)s3)CC2)nc(C(C)(C)C)n1 [Example 58]
